Measurements published in patent US11717508B2, “Compounds, compositions, and methods for inhibiting bacterial growth” (priority 2016, dated 2023).
Several values for one entry are separate records, joined by “and”; a condition that tells them apart may be missing. Equal entries are not always repeated. Where two headings read alike, the source gives them in different places.

Test system: DosRST regulon
Format: cell-based
Conditions: for Counts per million (CPM) WT_HC103A: replicates 1, 2

Structure (SMILES): O=C(Nc1cccc(O)c1)c1cccc(NC(=O)c2cccs2)c1 [HC103A, N-[3-[(3 hydroxyphenyl)carbamoyl]phenyl]thiophene-2-carboxamide]
- WT DMSO/WT HC103A fold change (gene MT2019 (Rv1967)): 0.1846
- log2 Fold change (gene MT2019 (Rv1967)): −2.437
- Counts per million (CPM) WT_HC103A (gene MT2019 Rv1967): 58.15 CPM and 26.3 CPM
- WT DMSO/WT HC103A fold change (gene MT2020 Rv1968): 0.199
- log2 Fold change (gene MT2020 Rv1968): −2.329
- Counts per million (CPM) WT_HC103A (gene MT2020 Rv1968): 72.37 CPM and 31.88 CPM
- WT DMSO/WT HC103A fold change (gene MT2021 (Rv1969)): 0.2997
- log2 Fold change (gene MT2021 (Rv1969)): −1.738
- Counts per million (CPM) WT_HC103A (gene MT2021 Rv1969): 29.34 CPM and 13.9 CPM
- WT DMSO/WT HC103A fold change (gene MT2022 (Rv1970 lprM)): 0.2084
- log2 Fold change (gene MT2022 (Rv1970 lprM)): −2.263
- Counts per million (CPM) WT_HC103A (gene MT2022 Rv1970 lprM): 41.74 CPM and 24.09 CPM
- WT DMSO/WT HC103A fold change (gene MT2023 (Rv1971)): 0.2079
- log2 Fold change (gene MT2023 (Rv1971)): −2.266
- Counts per million (CPM) WT_HC103A (gene MT2023 Rv1971): 53.39 CPM and 33.31 CPM
- WT DMSO/WT HC103A fold change (gene MT2024 (Rv1972)): 0.3791
- log2 Fold change (gene MT2024 (Rv1972)): −1.399
- Counts per million (CPM) WT_HC103A (gene MT2024 Rv1972): 12.78 CPM and 9.286 CPM
- WT DMSO/WT HC103A fold change (gene MT2048 Rv1992c ctpG): 0.2903
- log2 Fold change (gene MT2048 Rv1992c ctpG): −1.784
- Counts per million (CPM) WT_HC103A (gene MT2048 Rv1992c ctpG): 531.4 CPM and 326.8 CPM
- WT DMSO/WT HC103A fold change (gene MT2052 (Rv1996)): 0.003741
- log2 Fold change (gene MT2052 (Rv1996)): −8.063
- Counts per million (CPM) WT_HC103A (gene MT2052 Rv1996): 107.1 CPM and 83.44 CPM
- WT DMSO/WT HC103A fold change (gene MT2053 (Rv1997 ctpF)): 0.0183
- log2 Fold change (gene MT2053 (Rv1997 ctpF)): −5.772
- Counts per million (CPM) WT_HC103A (gene MT2053 Rv1997 ctpF): 57.85 CPM and 33.12 CPM
- WT DMSO/WT HC103A fold change (gene MT2059 (Rv2003c)): 0.1063
- log2 Fold change (gene MT2059 (Rv2003c)): −3.234
- Counts per million (CPM) WT_HC103A (gene MT2059 Rv2003c): 93.54 CPM and 62.92 CPM
- WT DMSO/WT HC103A fold change (gene MT2060 Rv2004c): 0.05469
- log2 Fold change (gene MT2060 Rv2004c): −3.95
- Counts per million (CPM) WT_HC103A (gene MT2060 Rv2004c): 219.7 CPM and 144.4 CPM
- WT DMSO/WT HC103A fold change (gene MT2061 Rv2005c): 0.04809
- log2 Fold change (gene MT2061 Rv2005c): −4.378
- Counts per million (CPM) WT_HC103A (gene MT2061 Rv2005c): 138.4 CPM and 91.76 CPM
- WT DMSO/WT HC103A fold change (gene MT2062 Rv2006 otsB): 0.1408
- log2 Fold change (gene MT2062 Rv2006 otsB): −2.828
- Counts per million (CPM) WT_HC103A (gene MT2062 Rv2006 otsB): 107.5 CPM and 97.41 CPM
- WT DMSO/WT HC103A fold change (gene MT2063 Rv2007c fdxA): 0.08678
- log2 Fold change (gene MT2063 Rv2007c fdxA): −4.765
- Counts per million (CPM) WT_HC103A (gene MT2063 Rv2007c fdxA): 527.8 CPM and 132.3 CPM
- WT DMSO/WT HC103A fold change (gene MT2086 (Rv2027c)): 0.2521
- log2 Fold change (gene MT2086 (Rv2027c)): −1.988
- Counts per million (CPM) WT_HC103A (gene MT2086 Rv2027c): 73.2 CPM and 62.79 CPM
- WT DMSO/WT HC103A fold change (gene MT2087 Rv2028c): 0.02878
- log2 Fold change (gene MT2087 Rv2028c): −5.119
- Counts per million (CPM) WT_HC103A (gene MT2087 Rv2028c): 35.92 CPM and 8.702 CPM
- WT DMSO/WT HC103A fold change (gene MT2088): 0.01366
- log2 Fold change (gene MT2088): −6.194
- Counts per million (CPM) WT_HC103A (gene MT2088): 84.09 CPM and 21.3 CPM
- WT DMSO/WT HC103A fold change (gene MT2089 Rv2030c): 0.01775
- log2 Fold change (gene MT2089 Rv2030c): −5.816
- Counts per million (CPM) WT_HC103A (gene MT2089 Rv2030c): 451.1 CPM and 80.39 CPM
- WT DMSO/WT HC103A fold change (gene MT2090): 0.0164
- log2 Fold change (gene MT2090): −5.93
- WT DMSO/WT HC103A fold change (gene MT2091 Rv2032): 0.01154
- log2 Fold change (gene MT2091 Rv2032): −6.438
- WT DMSO/WT HC103A fold change (gene MT2445.1): 0.4105
- log2 Fold change (gene MT2445.1): −1.285
- WT DMSO/WT HC103A fold change (gene MT2556 Rv2483c): 0.3592
- log2 Fold change (gene MT2556 Rv2483c): −1.477
- WT DMSO/WT HC103A fold change (gene MT2557 Rv2484c): 0.3196
- log2 Fold change (gene MT2557 Rv2484c): −1.646
- WT DMSO/WT HC103A fold change (gene MT2574 Rv2499c): 0.3086
- log2 Fold change (gene MT2574 Rv2499c): −1.696
- WT DMSO/WT HC103A fold change (gene MT2576): 0.2991
- log2 Fold change (gene MT2576): −1.741
- WT DMSO/WT HC103A fold change (gene MT2577 Rv2502c accD1): 0.3334
- log2 Fold change (gene MT2577 Rv2502c accD1): −1.585
- WT DMSO/WT HC103A fold change (gene MT2578 Rv2503c scoB): 0.2841
- log2 Fold change (gene MT2578 Rv2503c scoB): −1.815
- WT DMSO/WT HC103A fold change (gene MT2579 Rv2504c scoA): 0.281
- log2 Fold change (gene MT2579 Rv2504c scoA): −1.831
- WT DMSO/WT HC103A fold change (gene MT2698 Rv2623): 0.006998
- log2 Fold change (gene MT2698 Rv2623): −7.159
- WT DMSO/WT HC103A fold change (gene MT2699 Rv2624c): 0.01316
- log2 Fold change (gene MT2699 Rv2624c): −6.247
- WT DMSO/WT HC103A fold change (gene MT2700 Rv2625c): 0.007921
- log2 Fold change (gene MT2700 Rv2625c): −6.98
- WT DMSO/WT HC103A fold change (gene MT2701 Rv2626c): 0.00844
- log2 Fold change (gene MT2701 Rv2626c): −6.888
- WT DMSO/WT HC103A fold change (gene MT2702 Rv2627c): 0.005338
- log2 Fold change (gene MT2702 Rv2627c): −7.55
- WT DMSO/WT HC103A fold change (gene MT2703 Rv2678): 0.02894
- log2 Fold change (gene MT2703 Rv2678): −5.111
- WT DMSO/WT HC103A fold change (gene MT2704 Rv2629): 0.05675
- log2 Fold change (gene MT2704 Rv2629): −4.139
- WT DMSO/WT HC103A fold change (gene MT2705 Rv2630): 0.07365
- log2 Fold change (gene MT2705 Rv2630): 3.763
- WT DMSO/WT HC103A fold change (gene MT2707 Rv2631): 0.07456
- log2 Fold change (gene MT2707 Rv2631): −3.745
- WT DMSO/WT HC103A fold change (gene MT3171 Rv3086 adhD): 0.4045
- log2 Fold change (gene MT3171 Rv3086 adhD): −1.306
- WT DMSO/WT HC103A fold change (gene MT3210): 0.0164
- log2 Fold change (gene MT3210): −5.93
- WT DMSO/WT HC103A fold change (gene MT3212 Rv3127): 0.01248
- log2 Fold change (gene MT3212 Rv3127): −6.324
- WT DMSO/WT HC103A fold change (gene MT3216 Rv3130c): 0.005779
- log2 Fold change (gene MT3216 Rv3130c): −7.435
- WT DMSO/WT HC103A fold change (gene MT3217 Rv3131): 0.004749
- log2 Fold change (gene MT3217 Rv3131): −7.718
- WT DMSO/WT HC103A fold change (gene MT3218 Rv3132c): 0.04611
- log2 Fold change (gene MT3218 Rv3132c): −4.439
- WT DMSO/WT HC103A fold change (gene MT3219 Rv3133c): 0.0294
- log2 Fold change (gene MT3219 Rv3133c): −5.088
- WT DMSO/WT HC103A fold change (gene MT3220 Rv3134c): 0.02054
- log2 Fold change (gene MT3220 Rv3134c): −5.606
- WT DMSO/WT HC103A fold change (gene MT3427): 0.4435
- log2 Fold change (gene MT3427): −1.173
- WT DMSO/WT HC103A fold change (gene MT3443 Rv3340 metC): 0.3114
- log2 Fold change (gene MT3443 Rv3340 metC): −1.683
- WT DMSO/WT HC103A fold change (gene MT3444 Rv3341 metA): 0.2535
- log2 Fold change (gene MT3444 Rv3341 metA): −1.924
- WT DMSO/WT HC103A fold change (gene MT3608 Rv3504 fadE26): 0.3558
- log2 Fold change (gene MT3608 Rv3504 fadE26): −1.491
- WT DMSO/WT HC103A fold change (gene MT3634 Rv3531c): 0.2978
- log2 Fold change (gene MT3634 Rv3531c): −1.748
- WT DMSO/WT HC103A fold change (gene MT3656 Rv3552): 0.3116
- log2 Fold change (gene MT3656 Rv3552): −1.582
- WT DMSO/WT HC103A fold change (gene MT3716 Rv3614c): 0.3057
- log2 Fold change (gene MT3716 Rv3614c): −1.71
- WT DMSO/WT HC103A fold change (gene MT3717 Rv3615c): 0.3122
- log2 Fold change (gene MT3717 Rv3615c): −1.679
- WT DMSO/WT HC103A fold change (gene MT3718 Rv3616c): 0.3166
- log2 Fold change (gene MT3718 Rv3616c): −1.659
